From ChEMBL document CHEMBL5465560, “Selectivity Literature for EUbOPEN Chemogenomic Library” (2024)

What was measured:
[1] = biological target: T1, 5-hydroxytryptamine receptor 1A (Homo sapiens) (UniProt P08908); experiment: Selectivity interaction (Eurofins CEREP Diversity Profile (receptors and ion channels)) EUB0000279b HTR1A; details: at 10 µM
T1 sequence (whole entry): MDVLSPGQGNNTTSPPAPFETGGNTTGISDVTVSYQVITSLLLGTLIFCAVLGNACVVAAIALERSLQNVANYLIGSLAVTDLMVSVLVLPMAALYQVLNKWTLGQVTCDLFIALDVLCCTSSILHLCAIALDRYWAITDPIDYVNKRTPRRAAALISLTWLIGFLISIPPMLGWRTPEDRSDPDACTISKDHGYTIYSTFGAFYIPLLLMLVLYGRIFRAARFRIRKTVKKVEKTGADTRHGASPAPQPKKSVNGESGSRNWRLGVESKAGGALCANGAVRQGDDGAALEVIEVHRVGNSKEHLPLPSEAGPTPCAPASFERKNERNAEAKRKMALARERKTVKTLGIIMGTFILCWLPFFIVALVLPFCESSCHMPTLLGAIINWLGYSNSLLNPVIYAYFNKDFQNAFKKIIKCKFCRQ

[2] = biological target: T2, Cyclin-G-associated kinase (Homo sapiens) (UniProt O14976); experiment: Selectivity interaction (DSF assay) EUB0000229b GAK
T2 sequence (whole entry): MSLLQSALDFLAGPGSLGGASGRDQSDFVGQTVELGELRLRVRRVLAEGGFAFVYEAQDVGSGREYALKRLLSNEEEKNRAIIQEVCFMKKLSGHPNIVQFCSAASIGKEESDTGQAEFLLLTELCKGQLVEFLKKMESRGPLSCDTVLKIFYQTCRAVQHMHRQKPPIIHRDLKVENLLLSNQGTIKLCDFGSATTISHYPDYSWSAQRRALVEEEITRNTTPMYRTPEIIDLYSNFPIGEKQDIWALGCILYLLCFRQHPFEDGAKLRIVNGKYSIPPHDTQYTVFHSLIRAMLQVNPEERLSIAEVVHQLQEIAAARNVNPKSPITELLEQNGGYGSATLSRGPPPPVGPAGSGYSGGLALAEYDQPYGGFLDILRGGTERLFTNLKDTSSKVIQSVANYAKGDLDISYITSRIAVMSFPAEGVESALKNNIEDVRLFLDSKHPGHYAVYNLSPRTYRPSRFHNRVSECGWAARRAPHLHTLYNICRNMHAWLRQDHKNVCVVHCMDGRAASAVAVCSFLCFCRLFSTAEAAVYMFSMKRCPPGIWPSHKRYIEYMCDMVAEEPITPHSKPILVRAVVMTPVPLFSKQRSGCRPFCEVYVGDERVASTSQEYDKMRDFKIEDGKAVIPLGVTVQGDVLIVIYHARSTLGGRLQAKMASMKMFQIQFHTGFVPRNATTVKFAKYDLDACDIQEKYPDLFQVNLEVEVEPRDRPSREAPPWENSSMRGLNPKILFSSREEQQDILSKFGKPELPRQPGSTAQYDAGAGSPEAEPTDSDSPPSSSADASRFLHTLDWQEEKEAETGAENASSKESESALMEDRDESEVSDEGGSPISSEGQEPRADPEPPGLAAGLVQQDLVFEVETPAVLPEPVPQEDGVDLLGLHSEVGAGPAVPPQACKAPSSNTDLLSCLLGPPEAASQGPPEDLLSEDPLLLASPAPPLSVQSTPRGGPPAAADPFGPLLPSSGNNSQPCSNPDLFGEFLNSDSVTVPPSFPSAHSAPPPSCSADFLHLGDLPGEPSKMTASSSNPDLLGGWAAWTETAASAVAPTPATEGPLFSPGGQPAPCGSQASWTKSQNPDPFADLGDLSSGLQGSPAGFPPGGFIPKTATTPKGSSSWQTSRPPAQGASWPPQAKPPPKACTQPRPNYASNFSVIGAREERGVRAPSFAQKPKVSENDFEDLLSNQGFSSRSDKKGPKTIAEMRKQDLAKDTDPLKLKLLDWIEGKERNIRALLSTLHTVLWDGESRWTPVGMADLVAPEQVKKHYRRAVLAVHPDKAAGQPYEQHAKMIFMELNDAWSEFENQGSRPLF

[3] = biological target: Serine/threonine-protein kinase 32A (Homo sapiens) (UniProt Q8WU08); experiment: Selectivity interaction (KinomeScan (DiscoverX)) EUB0001079a STK32A; details: at 1 µM
[4] = tested on: T3, Receptor-type tyrosine-protein kinase FLT3 (Homo sapiens), P36888 [N841I]; experiment: Selectivity interaction (KinomeScan (DiscoverX)) EUB0001079a FLT3; details: at 1 µM
T3 sequence (whole entry): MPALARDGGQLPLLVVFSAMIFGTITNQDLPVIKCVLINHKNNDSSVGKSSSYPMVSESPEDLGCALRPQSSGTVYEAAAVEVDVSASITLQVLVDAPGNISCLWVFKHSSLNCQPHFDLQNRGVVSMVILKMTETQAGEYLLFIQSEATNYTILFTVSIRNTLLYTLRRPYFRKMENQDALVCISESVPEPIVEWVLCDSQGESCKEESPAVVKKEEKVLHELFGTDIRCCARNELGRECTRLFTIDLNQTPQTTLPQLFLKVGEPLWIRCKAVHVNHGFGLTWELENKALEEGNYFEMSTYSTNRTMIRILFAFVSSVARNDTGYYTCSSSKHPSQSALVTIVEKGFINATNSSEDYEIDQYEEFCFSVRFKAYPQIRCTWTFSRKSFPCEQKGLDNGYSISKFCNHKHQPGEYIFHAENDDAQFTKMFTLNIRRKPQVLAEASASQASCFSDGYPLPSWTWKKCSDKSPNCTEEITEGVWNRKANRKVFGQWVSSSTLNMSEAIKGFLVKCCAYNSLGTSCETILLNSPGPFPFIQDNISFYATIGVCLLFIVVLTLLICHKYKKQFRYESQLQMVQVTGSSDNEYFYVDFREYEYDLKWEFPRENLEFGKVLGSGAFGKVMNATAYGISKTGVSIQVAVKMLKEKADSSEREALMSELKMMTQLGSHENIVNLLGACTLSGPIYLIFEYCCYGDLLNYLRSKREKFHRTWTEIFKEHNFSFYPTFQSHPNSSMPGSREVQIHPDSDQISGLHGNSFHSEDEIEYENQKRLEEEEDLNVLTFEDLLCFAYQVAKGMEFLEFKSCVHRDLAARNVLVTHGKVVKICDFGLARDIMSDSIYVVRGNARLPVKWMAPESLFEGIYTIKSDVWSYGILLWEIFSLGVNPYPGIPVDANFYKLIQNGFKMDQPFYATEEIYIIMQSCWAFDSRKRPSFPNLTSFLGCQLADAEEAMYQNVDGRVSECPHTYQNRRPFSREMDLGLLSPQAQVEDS

Focal adhesion kinase 1 = Focal adhesion kinase 1 (Homo sapiens, UniProt Q05397); experiment: Selectivity interaction (KinomeScan (DiscoverX)) EUB0000045b PTK2
[5] = biological target: Mitogen-activated protein kinase kinase kinase 11 (Homo sapiens) (UniProt Q16584); experiment: Selectivity interaction (Kinase panel (KiNativ target engagement assay in Jurkat cells)) EUB0001635a MAP3K11; assay type: cell-based; details: Selectivity number of off-targets 0.0, Selectivity number of targets 233.0, Source Knowledge https://www.sciencedirect.com/science/article/pii/S2451945619300674?via%3Dihub, at 1 µM
Chain of Mitogen-activated protein kinase kinase kinase 11 (Homo sapiens) (Q16584 whole entry, looked up): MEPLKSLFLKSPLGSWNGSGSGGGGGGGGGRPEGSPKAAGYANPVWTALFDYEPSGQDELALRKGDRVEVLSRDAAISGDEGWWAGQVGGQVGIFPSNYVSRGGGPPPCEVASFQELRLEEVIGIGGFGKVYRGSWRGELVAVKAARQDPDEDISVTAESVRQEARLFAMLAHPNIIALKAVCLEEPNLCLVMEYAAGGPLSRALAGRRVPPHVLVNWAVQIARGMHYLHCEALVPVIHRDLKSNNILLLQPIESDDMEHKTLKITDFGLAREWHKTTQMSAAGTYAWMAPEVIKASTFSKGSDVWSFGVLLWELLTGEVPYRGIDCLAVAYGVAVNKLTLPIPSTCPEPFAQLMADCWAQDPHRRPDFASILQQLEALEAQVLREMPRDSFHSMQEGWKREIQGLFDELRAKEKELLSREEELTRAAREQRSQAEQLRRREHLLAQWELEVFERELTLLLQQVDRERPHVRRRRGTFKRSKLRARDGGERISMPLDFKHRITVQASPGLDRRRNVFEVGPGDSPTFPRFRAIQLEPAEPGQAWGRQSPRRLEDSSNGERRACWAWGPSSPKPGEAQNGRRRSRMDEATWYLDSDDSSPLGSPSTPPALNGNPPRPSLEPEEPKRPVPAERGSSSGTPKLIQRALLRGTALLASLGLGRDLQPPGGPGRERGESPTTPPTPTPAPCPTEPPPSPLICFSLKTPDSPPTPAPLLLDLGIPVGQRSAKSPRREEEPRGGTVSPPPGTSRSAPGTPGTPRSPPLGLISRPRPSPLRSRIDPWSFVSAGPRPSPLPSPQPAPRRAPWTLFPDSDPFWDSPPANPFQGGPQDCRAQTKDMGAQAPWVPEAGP

Chain of Focal adhesion kinase 1 (Q05397 2-1052 limits assumed): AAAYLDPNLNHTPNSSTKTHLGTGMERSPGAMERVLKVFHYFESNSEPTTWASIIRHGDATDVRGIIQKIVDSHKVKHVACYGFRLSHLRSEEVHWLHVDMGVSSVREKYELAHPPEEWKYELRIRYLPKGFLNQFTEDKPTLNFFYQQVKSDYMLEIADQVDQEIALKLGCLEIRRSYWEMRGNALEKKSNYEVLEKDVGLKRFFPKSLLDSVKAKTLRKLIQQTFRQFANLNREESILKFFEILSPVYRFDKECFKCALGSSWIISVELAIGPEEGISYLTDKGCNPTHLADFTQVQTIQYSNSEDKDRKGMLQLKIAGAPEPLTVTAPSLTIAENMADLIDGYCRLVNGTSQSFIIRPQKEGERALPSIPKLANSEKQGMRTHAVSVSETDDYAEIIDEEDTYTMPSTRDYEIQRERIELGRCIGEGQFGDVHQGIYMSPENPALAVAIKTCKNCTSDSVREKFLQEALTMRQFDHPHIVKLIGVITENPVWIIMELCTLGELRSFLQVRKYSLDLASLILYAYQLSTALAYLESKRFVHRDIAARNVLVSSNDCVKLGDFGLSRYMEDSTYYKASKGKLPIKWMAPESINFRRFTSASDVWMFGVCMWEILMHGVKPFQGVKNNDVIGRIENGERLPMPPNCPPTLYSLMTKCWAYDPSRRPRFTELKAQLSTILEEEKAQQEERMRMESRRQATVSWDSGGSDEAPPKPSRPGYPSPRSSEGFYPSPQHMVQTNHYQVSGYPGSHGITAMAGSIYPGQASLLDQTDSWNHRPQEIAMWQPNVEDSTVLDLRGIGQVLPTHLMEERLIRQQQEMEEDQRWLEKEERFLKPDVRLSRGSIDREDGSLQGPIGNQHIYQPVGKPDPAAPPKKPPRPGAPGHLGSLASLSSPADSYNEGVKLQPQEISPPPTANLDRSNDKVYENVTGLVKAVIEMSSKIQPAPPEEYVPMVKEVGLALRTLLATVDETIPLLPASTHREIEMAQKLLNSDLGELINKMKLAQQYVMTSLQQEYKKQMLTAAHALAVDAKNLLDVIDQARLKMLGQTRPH
Chain of Serine/threonine-protein kinase 32A (Homo sapiens) (Q8WU08 whole entry): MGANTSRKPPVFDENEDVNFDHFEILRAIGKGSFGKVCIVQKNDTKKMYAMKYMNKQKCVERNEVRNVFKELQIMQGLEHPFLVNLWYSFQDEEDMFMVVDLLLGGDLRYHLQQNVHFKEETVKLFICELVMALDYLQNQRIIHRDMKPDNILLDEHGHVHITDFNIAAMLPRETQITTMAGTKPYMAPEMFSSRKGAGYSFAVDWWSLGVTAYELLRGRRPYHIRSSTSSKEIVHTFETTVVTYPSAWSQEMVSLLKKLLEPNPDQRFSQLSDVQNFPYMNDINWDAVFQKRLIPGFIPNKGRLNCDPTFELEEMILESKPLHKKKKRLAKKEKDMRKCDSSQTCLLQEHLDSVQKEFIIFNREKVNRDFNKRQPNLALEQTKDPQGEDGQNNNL

CC(=O)c1cc(-c2ccccc2OCC2CC2)c2ncccn12
% of control [1]: 83%

COc1cc(N(C)c2ccnc3ccc(C(F)(F)F)cc23)cc(OC)c1OC
dTm [2]: -0.3 K

Nc1cnc(N2CCc3cc(S(=O)(=O)Nc4c(F)cc(Cl)cc4F)cc(N4CCCC4=O)c32)nc1 [TP-020n]
% of control [3]: 80% | % of control [4]: 89%

C=CC(=O)Nc1cc(-n2c(=O)ccc3cnc4ccc(-c5ccc(NS(C)(=O)=O)cc5)cc4c32)ccc1C
% of control (Focal adhesion kinase 1; at 1 µM): 96% | % of control (Focal adhesion kinase 1; at 10 µM): 100%

C=CC(=O)Nc1ccc(C(=O)Nc2[nH]nc3c2CN(C(=O)N[C@H](CN(C)C)c2ccccc2)C3(C)C)cc1
% of engagement [5]: -1.9%
